Test results as given in ChEMBL document CHEMBL4699610, “Synthesis and biological evaluation of anti-tubercular activity of Schiff bases of 2-Amino thiazoles” (2020).
In brackets after ≈: the same amount, converted by molar mass.

Test system: Mycobacterium tuberculosis
Assay: Antitubercular activity against Mycobacterium tuberculosis H37Rv assessed as bacterial growth inhibition by MABA relative to control
Type: functional

Compound	MIC
COc1cc(/C=C\Nc2nc(-c3ccc(NC(=O)c4ccccc4)cc3)cs2)cc(OC)c1OC	25 µg/mL (≈ 51.3 µM)
O=C(O)c1cn(C2CC2)c2cc(N3CCNCC3)c(F)cc2c1=O [CIPROFLOXACIN]	3.12 µg/mL (≈ 9.43 µM)
O=C1c2ccccc2C(=O)N1c1ccc(-c2csc(N/C=C\c3ccccc3[N+](=O)[O-])n2)cc1	25 µg/mL (≈ 53.4 µM)
O=C1CCC(=O)N1c1ccc(-c2csc(N/C=C\c3cccc(Cl)c3)n2)cc1	25 µg/mL (≈ 61 µM)
Nc1nc(-c2ccc(N3C(=O)CCC3=O)cc2)cs1	6.25 µg/mL (≈ 22.9 µM)
O=C(Nc1ccc(-c2csc(N/C=C\c3ccc(F)cc3)n2)cc1)c1ccccc1	12.5 µg/mL (≈ 30.1 µM)
COc1cc(/C=C\Nc2nc(-c3ccc(N4C(=O)c5ccccc5C4=O)cc3)cs2)cc(OC)c1OC	6.25 µg/mL (≈ 12.2 µM)
O=C(Nc1ccc(-c2csc(N/C=C\c3ccccc3[N+](=O)[O-])n2)cc1)c1ccccc1	6.25 µg/mL (≈ 14.1 µM)
COc1cc(/C=C\Nc2nc(-c3ccc(N4C(=O)CCC4=O)cc3)cs2)cc(OC)c1OC	25 µg/mL (≈ 53.7 µM)
NC(=O)c1cnccn1 [PYRAZINAMIDE]	3.12 µg/mL (≈ 25.4 µM)
Nc1nc(-c2ccc(N3C(=O)c4ccccc4C3=O)cc2)cs1	12.5 µg/mL (≈ 38.9 µM)
CC[C@@H](CO)NCCN[C@@H](CC)CO [ETHAMBUTOL]	3.2 µg/mL (≈ 15.7 µM)
Nc1nc(-c2ccc(NC(=O)c3ccccc3)cc2)cs1	50 µg/mL (≈ 169 µM)
O=C(Nc1ccc(-c2csc(N/C=C\c3cccc(Cl)c3)n2)cc1)c1ccccc1	25 µg/mL (≈ 57.9 µM)
O=C(Nc1ccc(-c2csc(N/C=C\c3ccc(O)cc3)n2)cc1)c1ccccc1	6.25 µg/mL (≈ 15.1 µM)
NNC(=O)c1ccncc1 [ISONIAZID]	1.6 µg/mL (≈ 11.7 µM)
CN[C@@H]1[C@H](O[C@H]2[C@H](O[C@H]3[C@H](O)[C@@H](O)[C@H](N=C(N)N)[C@@H](O)[C@@H]3N=C(N)N)O[C@@H](C)[C@]2(O)C=O)O[C@@H](CO)[C@H](O)[C@H]1O [STREPTOMYCIN]	0.8 µg/mL (≈ 1.38 µM)
O=C1CCC(=O)N1c1ccc(-c2csc(N/C=C\c3ccc(O)cc3)n2)cc1	100 µg/mL (≈ 255 µM)
O=C1CCC(=O)N1c1ccc(-c2csc(N/C=C\c3ccccc3[N+](=O)[O-])n2)cc1	100 µg/mL (≈ 238 µM)
O=C1CCC(=O)N1c1ccc(-c2csc(N/C=C\c3ccc(F)cc3)n2)cc1	12.5 µg/mL (≈ 31.8 µM)
CO[C@H]1/C=C/O[C@@]2(C)Oc3c(C)c(O)c4c(O)c(c(/C=N/N5CCN(C)CC5)c(O)c4c3C2=O)NC(=O)/C(C)=C\C=C\[C@H](C)[C@H](O)[C@@H](C)[C@@H](O)[C@@H](C)[C@H](OC(C)=O)[C@@H]1C [RIFAMPIN]	0.8 µg/mL (≈ 0.972 µM)
